Source: US20050053669A1, “Administration form for the oral application of poorly soluble acidic and amphorteric drugs” (Boehringer Ingelheim International GmbH, priority 2003, published 2005)

Legend:
[1] = phase I study, plasma levels on increasing the dose; type: in vivo, human
Text: Generally increasing the dose in order to compensate for the reduced bioavailability in patients is frequently undesirable because of the waste of active substance and the greater burden on the patient and the associated risk of side effects, for example, or even totally impossible, on the grounds of drug safety.

[2] = solubility of the active substance; type: physicochemical
Description: The solubility of a compound may be determined by dispersing an excess of the compound at ambient temperature in the medium in question and shaking it vigorously for a defined length of time (approx. 1 to 24 h) until equilibrium is achieved. After filtration the pH is determined in the clear filtrate and the concentration of the dissolved substance is determined by spectral photometry or some other suitable analytical process.

| Compound | plasma levels achieved with 200 mg ([1]; 200 mg compared with 600 mg) | higher plasma levels on increasing the dose ([1]; dose increased from 100 to 600 mg) | solubility in an acidic medium [2] |
| --- | --- | --- | --- |
| O=C(O)CCC/C=C(\c1ccc(CCNS(=O)(=O)c2ccc(Cl)cc2)cc1)c1cccnc1 [DT-TX 30] | equal to those obtained with 600 mg | about 50% | – |
| CCCc1nc2c(C)cc(-c3nc4ccccc4n3C)cc2n1Cc1ccc(-c2ccccc2C(=O)O)cc1 [telmisartan] | – | – | readily soluble |
